In publication PMC7279038, “Antioxidant and Neuroprotective Effects Induced by Cannabidiol and Cannabigerol in Rat CTX-TNA2 Astrocytes and Isolated Cortexes” (International Journal of Molecular Sciences, 2020):

Experiments:
Settings in all cases: mean ± S.D., n = 3
[1] = DPPH scavenging ability test
Procedure: For the 1,1-diphenyl-2-picrylhydrazyl (DPPH) radical scavenging assay, sample solution was added to 4 mL of a 0.004% methanol solution of DPPH. The sample absorbance was read at 517 nm after a 30 min incubation at room temperature in the dark. DPPH radical scavenging activity was expressed as IC50 values.

[2] = ABTS scavenging ability test
Procedure: For the 2,2′-azino-bis(3-ethylbenzothiazoline) 6-sulfonic acid (ABTS) radical scavenging assay, ABTS+ was produced directly by reacting 7 mM ABTS solution with 2.45 mM potassium persulfate and allowing the mixture to stand for […] in the dark at room temperature. Prior to beginning the assay, ABTS solution was diluted with methanol to an absorbance of 0.700 ± 0.02 at 734 nm. Sample solution was added to ABTS solution (2 mL) and mixed. The sample absorbance was read at 734 nm after a 30 min incubation at room temperature. The ABTS radical scavenging activity was expressed as IC50 values.

[3] = Cupric reducing antioxidant capacity (CUPRAC)
Procedure: For the cupric ion reducing activity (CUPRAC) activity assay, sample solution was added to premixed reaction mixture containing CuCl2 (1 mL, 10 mM), neocuproine (1 mL, 7.5 mM) and NH4Ac buffer (1 mL, 1 M, pH 7.0). Similarly, a blank was prepared by adding sample solution (0.5 mL) to premixed reaction mixture […] without CuCl2. Then, the sample and blank absorbances were read at 450 nm after a 30 min incubation at room temperature. The absorbance of the blank was subtracted from that of the sample. CUPRAC activity was expressed as IC50 values.

[4] = Ferric reducing antioxidant power (FRAP)
Procedure: For the ferric reducing antioxidant power (FRAP) activity assay, sample solution was added to premixed FRAP reagent (2 mL) containing acetate buffer (0.3 M, pH 3.6), 2,4,6-tris(2-pyridyl)-S-triazine (TPTZ) (10 mM) in 40 mM HCl and ferric chloride (20 mM) in a ratio of 10:1:1 (v/v/v). Then, the sample absorbance was read at 593 nm after a 30 min incubation at room temperature. FRAP activity was expressed as IC50 values.

Cc1c(C)c2c(c(C)c1O)CCC(C)(C(=O)O)O2 (stereo not shown) [Trolox]
IC50 [1]: 210 ± 10 µM | IC50 [2]: 410 ± 10 µM | IC50 [3]: 500 ± 10 µM | IC50 [4]: 180 ± 10 µM
